Measured values reported in patent US6509361B1, “1,5-Diaryl substituted pyrazoles as p38 kinase inhibitors” (Pharmacia Corporation, priority 2001, dated 2003).
Values belong to the compound of their own block, whether it stands above or below them.

How the values were obtained:
human p38 kinase alpha = molecular target: T1, human p38 kinase alpha (Homo sapiens, UniProt Q16539); test: p38 Kinase Assay (in vitro; PHAS-I/32P-ATP format or EGFRP/33P-ATP format); format: biochemical; conditions: activated human p38 kinase alpha, 50 μM unlabeled ATP; table does not say which of the two assay formats
T1 construct: The coding region of the human p38a cDNA was obtained by PCR-amplification from RNA isolated from the human monocyte cell line THP.1; GST (N); made in house; host or cells: E. coli DH10B
T1 sequence (Q16539 whole entry): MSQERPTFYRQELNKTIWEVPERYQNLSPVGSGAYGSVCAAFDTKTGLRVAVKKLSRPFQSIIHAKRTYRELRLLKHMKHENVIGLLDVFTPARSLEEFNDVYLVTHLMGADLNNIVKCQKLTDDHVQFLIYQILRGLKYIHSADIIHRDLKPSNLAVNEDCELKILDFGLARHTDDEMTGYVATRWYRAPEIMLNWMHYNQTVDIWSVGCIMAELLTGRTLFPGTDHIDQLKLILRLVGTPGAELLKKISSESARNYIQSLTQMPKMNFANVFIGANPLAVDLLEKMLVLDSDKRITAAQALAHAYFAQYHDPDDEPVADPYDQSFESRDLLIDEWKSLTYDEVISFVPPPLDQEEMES
Procedure: The coding region of the human p38a cDNA was obtained by PCR-amplification from RNA isolated from the human monocyte cell line THP.1. First strand cDNA was synthesized from total RNA as follows: 2 μg of RNA was annealed to 100 ng of random hexamer primers in a 10 μl reaction by heating to 70° C. for 10 minutes followed by 2 minutes on ice. cDNA was then synthesized by adding 1 μl of RNAsin (Promega, Madison Wis.), 2 μl of 50 mM dNTP's, 4 μl of 5×buffer, 2 μl of 100 mM DTT and 1 μl (200 U) of Superscript II™ […] reverse transcriptase. Random primer, dNTP's and Superscript™ reagents were all purchased from Life-Technologies, Gaithersburg, Mass. The reaction was incubated at 42° C. for 1 hour. Amplification of p38 cDNA was performed by aliquoting 5 μl of the reverse transcriptase reaction into a 100 μl PCR reaction containing the following: 80 μl dH2O, 2 μl 50 mM dNTP's, 1 μl each of forward and reverse primers (50 pmol/μl), 10 μl of 10× buffer and 1 μl Expand™ polymerase (Boehringer Mannheim). The PCR primers incorporated Bam HI sites onto the 5′ and 3′ end of the amplified fragment, and were purchased from Genosys. The forward and reverse primers were 5′-[…]-3′ and 5′[…]-3′, respectively. The PCR amplification was carried out in a DNA Thermal Cycler (Perkin Elmer) by repeating 30 cycles of 94° C. for 1 minute, 60° C. for 1 minute and 68° C. for 2 minutes. After amplification, excess primers and unincorporated dNTP's were removed from the amplified fragment with a Wizard™ PCR prep (Promega) and digested with Bam HI (New England Biolabs). The Bam HI digested fragment was ligated into BamHI digested pGEX 2T plasmid DNA (PharmaciaBiotech) using T-4 DNA ligase (New England Biolabs) as described by T. Maniatis, Molecular Cloning: A Laboratory Manual, 2nd ed. (1989). The ligation reaction was transformed into chemically competent E. coli DH10B cells purchased from Life-Technologies following the manufacturer's instructions. Plasmid DNA was isolated from the resulting bacterial colonies using a Promega Wizard™ miniprep kit. Plasmids containing the appropriate Bam HI fragment were sequenced in a DNA Thermal Cycler (Perkin Elmer) with Prism™ (Applied Biosystems Inc.). cDNA clones were identified that coded for both human p38a isoforms (Lee et al. Nature 372, 739). One of the clones which contained the cDNA for p38a-2 (CSBP-2) inserted in the cloning site of pGEX 2T, 3′ of the GST coding region was designated pMON 35802. The sequence obtained for this clone is an exact match of the cDNA clone reported by Lee et al. This expression plasmid allows for the production of a GST-p38a fusion protein.
Expression of Human p38a:
GST/p38a fusion protein was expressed from the plasmid pMON 35802 in E. coli, stain DH10B (Life Technologies, Gibco-BRL). Overnight cultures were grown in Luria Broth (LB) containing […] ampicillin. The next day, 500 ml of fresh LB was inoculated with 10 ml of overnight culture, and grown in a 2 liter flask at 37° C. with constant shaking until the culture reached an absorbance of 0.8 at 600 nm. Expression of the fusion protein was induced by addition of isopropyl b-D-thiogalactosidse (IPTG) to a final concentration of 0.05 mM. The cultures were shaken for three hours at room temperature, and the cells were harvested by centrifugation. The cell pellets were stored frozen until protein purification.
Purification of p38 Kinase-α:
All chemicals were from Sigma Chemical Co. unless noted. Twenty grams of E. coli cell pellet collected from five 1 L shake flask fermentations was resuspended in a volume of PBS (140 mM NaCl, 2.7 mM KCl, 10 mM Na2HPO4, 1.8 mM KH2PO4, pH 7.3) up to 200 ml. The cell suspension was adjusted to 5 mM DTT with 2 M DTT and then split equally into five 50 ml Falcon conical tubes. The cells were sonnicated (Ultrasonics model W375) with a 1 cm probe for 3×1 minutes (pulsed) on ice. […]

[1] = tested on: TNF-a (LPS-stimulated human peripheral blood mononuclear cells); test: TNF Cell Assay: LPS stimulation of human PBM cells, TNF-a by ELISA; format: cell-based; conditions: PBMC, LPS 20 ng/ml, overnight 37° C., compound 10-0.41 μM
Procedure: Method of Isolation of Human Peripheral Blood Mononuclear Cells:
Human whole blood was collected in Vacutainer tubes containing EDTA as an anticoagulant. A blood sample (7 ml) was carefully layered over 5 ml PMN Cell Isolation Medium (Robbins Scientific) in a 15 ml round bottom centrifuge tube. The sample was centrifuged at 450-500×g for 30-35 minutes in a swing out rotor at room temperature. After centrifugation, the top band of cells were removed and washed 3 times with PBS w/o calcium or magnesium. The cells were centrifuged at 400×g for 10 minutes at room temperature. The cells were resuspended in Macrophage Serum Free Medium (Gibco BRL) at a concentration of 2 million cells/ml.
LPS Stimulation of Human PBMS:
PBM cells (0.1 ml, 2 million/ml) were co-incubated with 0.1 ml compound (10-0.41 μM, final concentration) for 1 hour in flat bottom 96 well microtiter plates. Compounds were dissolved in DMSO initially and diluted in TCM for a final concentration of 0.1% DMSO. LPS (Calbiochem, 20 ng/ml, final concentration) was then added at a volume of 0.010 ml. Cultures were incubated overnight at 37° C. Supernatants were then removed and tested by ELISA for TNF-a and IL1-b. Viability was analyzed using MTS. After 0.1 ml supernatant was collected, 0.020 ml MTS was added to remaining 0.1 ml cells. The cells were incubated at 37° C. for 2-4 hours, then the O.D. was measured at […].

[2] = tested on: TNF-α released by U937 cells (human histiocytic lymphoma cell line); test: U937 Cell Assay: LPS stimulation of TNF production by U937 cells, ELISA; format: cell-based; conditions: U-937, differentiated U937 cells, LPS 100 ng/ml, 4 hour incubation
Procedure: Maintenance and Differentiation of the U937 Human Histiocytic Lymphoma Cell Line:
U937 cells (ATCC) were propagated in RPMI 1640 containing 10% fetal bovine serum, 100 IU/ml penicillin, 100 μg/ml streptomycin, and 2 mM glutamine (Gibco). Fifty million cells in 100 ml media were induced to terminal monocytic differentiation by 24 hour incubation with 20 ng/ml phorbol 12-myristate 13-acetate (Sigma). The cells were washed by centrifugation (200×g for 5 min) and resuspended in 100 ml fresh medium. After 24-48 hours, the cells were harvested, centrifuged, and resuspended in culture medium at 2 million cells/ml.
LPS Stimulation of TNF Production by U937 Cells:
U937 cells (0.1 ml, 2 million/ml) were incubated with 0.1 ml compound (0.004-50 μM, final concentration) for 1 hour in 96 well microtiter plates. Compounds were prepared as 10 mM stock solutions in DMSO and diluted in culture medium to yield a final DMSO concentration of 0.1% in the cell assay. LPS (E. coli, 100 ng/ml final concentration) was then added at a volume of 0.02 ml. After 4 hour incubation at 37° C., the amount of TNF-α released in the culture medium was quantitated by ELISA. Inhibitory potency is expressed as IC50 (μM).

Structure (SMILES): Fc1ccc(-n2nccc2-c2ccnc(NCCc3ccccc3)c2)cc1 [Example 30, 2-(Phenylethylamino)-4-[1-(4-fluorophenyl)-1H-pyrazol-5-yl]pyridine]
IC50 (human p38 kinase alpha): 0.024 µM
IC50 [1]: 10 µM

Structure (SMILES): Fc1ccc(-n2ncc(N3CCNCC3)c2-c2ccncc2)cc1 [Example 18]
IC50 (human p38 kinase alpha): 35.7 µM
IC50 [1]: > 10 µM
IC50 [2]: ≥ 10 µM

Structure (SMILES): Cc1cccc(-n2nc(C)cc2-c2ccnc(OCc3ccccc3)c2)c1 [Example 28, 2-Bezyloxy-4-[1-(3-methylphenyl)-3-methyl-1H-pyrazol-5-yl]pyridine]
IC50 (human p38 kinase alpha): 0.843 µM
IC50 [1]: > 10 µM
IC50 [2]: 2.64 µM

Structure (SMILES): Cc1cccc(-n2nc(C)cc2-c2ccnc(S(C)(=O)=O)c2)c1 [Example 36, 2-(Methylsulfonyl)-4-[1-(3-methylphenyl)-3-methyl-1H-pyrazol-5-yl]pyridine]
IC50 (human p38 kinase alpha): 29.9 µM
melting point: 140 to 142 °C
IC50 [1]: > 10 µM

Structure (SMILES): Cc1cccc(-n2nc(C)cc2-c2ccnc(N(C)CCc3ccccc3)c2)c1 [Example 25, 2-(N-Methylphenylethylamino)-4-[1-(3-methylphenyl)-3-methyl-1H-pyrazol-5-yl]pyridine]
IC50 (human p38 kinase alpha): 2.24 µM
IC50 [1]: 0.8 µM

Structure (SMILES): CCCc1c[nH][n+](-c2cccc(F)c2)c1-c1ccncc1 [Example 39]
melting point: 93 to 94 °C

Structure (SMILES): Cc1cc(-c2ccnc(C(N)=O)c2)n(-c2ccc(F)cc2)n1 [Example 34, {4-[1-(4-Fluorophenyl)-3-methyl-1H-pyrazol-5-yl]}pyridine-2-carboxamide]
IC50 (human p38 kinase alpha): 44 µM
melting point: 168 to 170 °C

Structure (SMILES): Cc1cccc(-n2nc(C)cc2-c2ccnc(N)c2)c1 [Example 21, 2-Amino-4-[1-(3-methylphenyl)-3-methyl-1H-pyrazol-5-yl]pyridine]
IC50 (human p38 kinase alpha): 0.35 µM
melting point: 124 to 125 °C
IC50 [1]: 0.5 µM

Structure (SMILES): COC(=O)c1cnn(-c2ccc(F)cc2)c1-c1ccncc1 [Example 42, Methyl 1-(4-Fluorophenyl)-5-(4-pyridinyl)-1H-pyrazole-4-carboxylate]
IC50 (human p38 kinase alpha): 2.68 µM
IC50 [2]: ≥ 10 µM

Structure (SMILES): Cc1cnn(-c2cccc(F)c2)c1-c1ccncc1 [Example 2]
IC50 (human p38 kinase alpha): 37.2 µM
melting point: 131.11 °C
IC50 [1]: 4 µM

Structure (SMILES): O=C(O)c1cnn(-c2ccc(F)cc2)c1-c1ccncc1 [Example 43]
IC50 (human p38 kinase alpha): 65.1 µM
IC50 [2]: ≥ 10 µM

Structure (SMILES): CCc1c[nH][n+](-c2cccc(F)c2)c1-c1ccncc1 [Example 40]
melting point: 109 to 110 °C

Structure (SMILES): Cc1cc(-c2ccnc(N=[N+]=[N-])c2)n(-c2cccc(F)c2)n1 [Example 37, {4-[1-(3-Fluorophenyl)-3-methyl-1H-pyrazol-5-yl]}pyridine-2-azide]
IC50 (human p38 kinase alpha): 85 µM
melting point: 134 to 135 °C
IC50 [1]: 2.2 µM

Structure (SMILES): Cc1cccc(-n2nc(C)cc2-c2ccnc(C(N)=O)c2)c1 [Example 33, {4-[1-(3-Methylphenyl)-3-methyl-1H-pyrazol-5-yl]}-2-pyridine-2-carboxamide]
melting point: 193 to 195 °C
IC50 [1]: 5 µM

Structure (SMILES): Cc1cnn(Cc2ccccc2)c1-c1ccncc1 [Example 4]
IC50 (human p38 kinase alpha): > 100 µM
IC50 [1]: > 10 µM

Structure (SMILES): Cc1cc(-c2ccnc(Cl)c2)n(-c2cccc(F)c2)n1 [Example 46, 2-Chloro-4-[1-(3-fluorophenyl)-3-methyl-1H-pyrazol-5-yl]pyridine]
IC50 (human p38 kinase alpha): 67.7 µM
IC50 [2]: > 10 µM

More lines, now with the values ahead:

IC50 (human p38 kinase alpha): > 100 µM
melting point: 94.38 °C
IC50 [1]: > 10 µM
Structure (SMILES): Cc1ccc(-n2nc(C)cc2-c2cccc(N)c2)cc1 [Example 14]

IC50 (human p38 kinase alpha): 0.01 µM
melting point: 102.1 °C
IC50 [1]: 1.1 µM
Structure (SMILES): Cc1ccc(-n2nc(C)cc2-c2ccnc(NCc3ccccc3)c2)cc1 [Example 7]

IC50 (human p38 kinase alpha): 1.4 µM
melting point: 148.2 °C
IC50 [1]: 0.2 µM
Structure (SMILES): Cc1ccc(-n2nc(C)cc2-c2ccnc(NCCO)c2)cc1 [Example 5]

IC50 (human p38 kinase alpha): 14 µM
melting point: 100.07 °C
IC50 [1]: 2.9 µM
Structure (SMILES): Cc1ccc(-n2nc(C)cc2-c2ccnc(Cl)c2)cc1 [Example 41, 2-chloro-4-[3-methyl-1-(4-methylphenyl)-1H-pyrazol-5-yl]pyridine]

IC50 (human p38 kinase alpha): 0.4 µM
melting point: 108.94 °C
IC50 [1]: 1.5 µM
Structure (SMILES): Cc1ccc(-n2nc(C)cc2-c2ccnc(NCc3cccnc3)c2)cc1 [Example 6]

IC50 (human p38 kinase alpha): > 100 µM
IC50 [1]: > 10 µM
Structure (SMILES): Cc1ccc(-n2nc(C)cc2-c2ccnc(N(C)C)c2)cc1 [Example 10]

melting point: 94 to 96 °C
Structure (SMILES): Cc1cc(-c2ccnc(NCc3ccccc3)c2)n(-c2cccc(F)c2)n1 [Example 20, 2-(Benzylamino)-4-[1-(3-fluorophenyl)-3-methyl-1H-pyrazol-5-yl]pyridine]

IC50 (human p38 kinase alpha): 0.002 µM
IC50 [1]: 0.1 µM
Structure (SMILES): Cc1cccc(-n2nc(C)cc2-c2ccnc(NCc3ccccc3)c2)c1 [Example 19, 2-(Benzylamino)-4-[1-(3-methylphenyl)-3-methyl-1H-pyrazol-5-yl]pyridine]

IC50 (human p38 kinase alpha): 0.219 µM
IC50 [1]: 0.6 µM
Structure (SMILES): Cc1cc(-c2ccnc(NCc3cccnc3)c2)n(-c2cccc(F)c2)n1 [Example 38, 2-(3-Pyridylmethylamino)-4-[1-(3-fluorophenyl)-3-methyl-1H-pyrazol-5-yl]pyridine]
